# Results reported in patent publication US5294617A, “Angiotensin II receptor blocking 2,3,6 substituted quinazolinones” (American Cyanamid Company, priority 1993, dated 1994).
# Where “and” joins values, the source holds several entries; their conditions need not be identical. Equal entries are not always repeated.
# System: ANGIOTENSIN II (AII) VASOPRESSOR RESPONSE
# Assay: AII Challenge: angiotensin II vasopressor response in conscious spontaneously hypertensive rats
# Assay type: in vivo, Conscious Male Okamoto-Aoki SHR (rat)
# Settings: individual rat, SHR
# Text: By administering a compound of this invention to a rat, and then challenging with angiotensin II, a blockage of the vasopressor response is realized.
# Conscious Male Okamoto-Aoki SHR, 16-20 weeks old, weighing approximately 330 g are purchased from Charles River Labs (Wilmington, Mass.). Conscious rats are restrained in a supine position with elastic tape. The area at the base of the tail is locally anesthetized by subcutaneous infiltration with 2% procaine. The ventral caudal artery and vein are isolated, and a cannula made of polyethylene (PE) 10-20 tubing (fused together by heat) is passed into the lower abdominal aorta and vena cava, respectively. The cannula is secured, heparinized (1,000 I.U./ml), sealed and the wound is closed. The animals are placed in plastic restraining cages in an upright position. The cannula is attached to a Statham P23Db pressure transducer, and pulsatile blood pressure is recorded to 10-15 minutes with a Gould Brush recorder. (Chan et al., (Drug Development Res., 18:75-94, 1989).
# Angiotensin II (human sequence, Sigma Chem. Co., St. Louis, Mo.) of 0.05 and 0.1 ug/kg i.v. is injected into all rats (predosing response). Then a test compound, vehicle or a known angiotensin II antagonist is administered i.v., i.p. or orally to each set of rats. The two doses of angiotensin II are given to each rat again at 30, 60, 90, 120, 180, 240 and 300 minutes post dosing the compound or vehicle. The vasopressor response of angiotensin II is measured for the increase in systolic blood pressure in mmHg. The percentage of antagonism or blockade of the vasopressor response of angiotensin II by a compound is calculated using the vasopressor response (increase in systolic blood pressure) of angiotensin II of each rat predosing the compound as 100%. A compound is considered active if at 30 mg/kg i.v. it antagonized at least 50% of the response.
# [1] = 2 mg/kg i.v., AII 0.1 mcg/kg IV, 90 min post dose, 2 mg/kg
# [2] = 2 mg/kg i.v., AII 0.1 mcg/kg IV, 120 min post dose, 2 mg/kg
# [3] = 2 mg/kg i.v., AII 0.1 mcg/kg IV, 180 min post dose, 2 mg/kg
# [4] = 10 mg/kg i.v., AII 0.05 mcg/kg IV, 30 min post dose, 10 mg/kg
# [5] = 10 mg/kg i.v., AII 0.05 mcg/kg IV, 60 min post dose, 10 mg/kg
# [6] = 10 mg/kg i.v., AII 0.05 mcg/kg IV, 120 min post dose, 10 mg/kg
# [7] = 10 mg/kg i.v., AII 0.05 mcg/kg IV, 180 min post dose, 10 mg/kg
# [8] = 10 mg/kg i.v., AII 0.05 mcg/kg IV, 240 min post dose, 10 mg/kg
# [9] = 10 mg/kg i.v., AII 0.05 mcg/kg IV, 300 min post dose, 10 mg/kg
# [10] = 10 mg/kg i.v., AII 0.1 mcg/kg IV, 30 min post dose
# [11] = 10 mg/kg i.v., AII 0.1 mcg/kg IV, 60 min post dose, 10 mg/kg
# [12] = 10 mg/kg i.v., AII 0.1 mcg/kg IV, 90 min post dose, 10 mg/kg
# [13] = 10 mg/kg i.v., AII 0.1 mcg/kg IV, 120 min post dose, 10 mg/kg
# [14] = 10 mg/kg i.v., AII 0.1 mcg/kg IV, 180 min post dose, 10 mg/kg
# [15] = 10 mg/kg i.v., AII 0.1 mcg/kg IV, 240 min post dose, 10 mg/kg
# [16] = 10 mg/kg i.v., AII 0.1 mcg/kg IV, 300 min post dose, 10 mg/kg
structure (smiles),measurement,setting,value
"CCCCc1nc2ccc([C@@H]3C[C@H](CO)ON3C)cc2c(=O)n1Cc1ccc(-c2ccccc2-c2nn[nH]n2)cc1 (relative stereo) [Example 15, CIS-2-butyl-6-5-(hydroxymethyl)-2-methyl-3-isoxazolidinyl]-3-[[2'-(1H-tetrazol-5[1,1'-biphenyl]-4-yl]methyl]-4(3H)-quinazolinone]",Response After AII,[1],245 mmHg and 240 mmHg
same,Response Change,[1],30 mmHg and 20 mmHg
same,Response After AII,[2],227 mmHg and 235 mmHg
same,Response Change,[2],17 mmHg and 20 mmHg
same,Response After AII,[3],220 mmHg and 255 mmHg
same,Response Change,[3],10 mmHg and 35 mmHg
same,Control Before AII,"2 mg/kg i.v., before AII 0.05 mcg/kg IV, 30 min post dose, 2 mg/kg",215 mmHg and 225 mmHg
same,Control Before AII,"2 mg/kg i.v., before AII 0.05 mcg/kg IV, 60 min post dose",220 mmHg
same,Control Before AII,"2 mg/kg i.v., before AII 0.05 mcg/kg IV, 90 min post dose, 2 mg/kg",210 mmHg and 225 mmHg
same,Control Before AII,"2 mg/kg i.v., before AII 0.05 mcg/kg IV, 120 min post dose, 2 mg/kg",205 mmHg and 215 mmHg
same,Control Before AII,"2 mg/kg i.v., before AII 0.05 mcg/kg IV, 180 min post dose, 2 mg/kg",203 mmHg and 215 mmHg
same,Control Before AII,"2 mg/kg i.v., before AII 0.1 mcg/kg IV, 30 min post dose, 2 mg/kg",220 mmHg and 215 mmHg
same,Control Before AII,"2 mg/kg i.v., before AII 0.1 mcg/kg IV, 60 min post dose, 2 mg/kg",220 mmHg and 217 mmHg
same,Control Before AII,"2 mg/kg i.v., before AII 0.1 mcg/kg IV, 90 min post dose, 2 mg/kg",215 mmHg and 220 mmHg
same,Control Before AII,"2 mg/kg i.v., before AII 0.1 mcg/kg IV, 120 min post dose, 2 mg/kg",210 mmHg and 215 mmHg
same,Control Before AII,"2 mg/kg i.v., before AII 0.1 mcg/kg IV, 180 min post dose, 2 mg/kg",210 mmHg and 220 mmHg
same,Response After AII,[4],180 mmHg and 190 mmHg
same,Response Change,[4],5 mmHg and 15 mmHg
same,Response After AII,"10 mg/kg i.v., AII 0.05 mcg/kg IV, 60 min post dose",190 mmHg
same,Response After AII,[5],165 mmHg
same,Response Change,[5],0 mmHg and 1 mmHg
same,Response Change,"10 mg/kg i.v., AII 0.05 mcg/kg IV, 90 min post dose",5 mmHg
same,Response After AII,"10 mg/kg i.v., AII 0.05 mcg/kg IV, 90 min post dose, 10 mg/kg",180 mmHg and 170 mmHg
same,Response After AII,[6],195 mmHg and 175 mmHg
same,Response Change,[6],15 mmHg and 10 mmHg
same,Response After AII,[7],195 mmHg and 165 mmHg
same,Response Change,[7],30 mmHg and 10 mmHg
same,Response After AII,"10 mg/kg i.v., AII 0.05 mcg/kg IV, 240 min post dose",160 mmHg
same,Response After AII,[8],195 mmHg
same,Response Change,[8],25 mmHg and 5 mmHg
same,Response After AII,"10 mg/kg i.v., AII 0.05 mcg/kg IV, 300 min post dose",170 mmHg
same,Response After AII,[9],185 mmHg
same,Response Change,[9],17 mmHg and 10 mmHg
same,Response After AII,[10],170 mmHg
same,Response Change,[10],0 mmHg
same,Response After AII,"10 mg/kg i.v., AII 0.1 mcg/kg IV, 30 min post dose, 10 mg/kg",185 mmHg
same,Response After AII,[11],193 mmHg and 170 mmHg
same,Response Change,[11],8 mmHg and 10 mmHg
same,Response After AII,[12],195 mmHg and 175 mmHg
same,Response Change,[12],10 mmHg and 15 mmHg
same,Response After AII,"10 mg/kg i.v., AII 0.1 mcg/kg IV, 120 min post dose",190 mmHg
same,Response After AII,[13],175 mmHg
same,Response Change,[13],15 mmHg and 10 mmHg
same,Response After AII,[14],205 mmHg and 165 mmHg
same,Response Change,[14],35 mmHg and 8 mmHg
same,Response After AII,[15],205 mmHg and 165 mmHg
same,Response Change,[15],35 mmHg and 8 mmHg
same,Response After AII,[16],190 mmHg and 200 mmHg
same,Response Change,[16],25 mmHg and 40 mmHg
same,Control Before AII,"10 mg/kg i.v., before AII 0.05 mcg/kg IV, 30 min post dose",175 mmHg
same,Control Before AII,"10 mg/kg i.v., before AII 0.05 mcg/kg IV, 60 min post dose, 10 mg/kg",190 mmHg and 164 mmHg
same,Control Before AII,"10 mg/kg i.v., before AII 0.05 mcg/kg IV, 90 min post dose, 10 mg/kg",175 mmHg and 165 mmHg
same,Control Before AII,"10 mg/kg i.v., before AII 0.05 mcg/kg IV, 120 min post dose, 10 mg/kg",180 mmHg and 165 mmHg
same,Control Before AII,"10 mg/kg i.v., before AII 0.05 mcg/kg IV, 180 min post dose, 10 mg/kg",165 mmHg and 155 mmHg
same,Control Before AII,"10 mg/kg i.v., before AII 0.05 mcg/kg IV, 240 min post dose, 10 mg/kg",170 mmHg and 155 mmHg
same,Control Before AII,"10 mg/kg i.v., before AII 0.05 mcg/kg IV, 300 min post dose, 10 mg/kg",168 mmHg and 160 mmHg
same,Control Before AII,"10 mg/kg i.v., before AII 0.1 mcg/kg IV, 30 min post dose, 10 mg/kg",185 mmHg and 170 mmHg
same,Control Before AII,"10 mg/kg i.v., before AII 0.1 mcg/kg IV, 60 min post dose, 10 mg/kg",185 mmHg and 160 mmHg
same,Control Before AII,"10 mg/kg i.v., before AII 0.1 mcg/kg IV, 90 min post dose, 10 mg/kg",185 mmHg and 160 mmHg
same,Control Before AII,"10 mg/kg i.v., before AII 0.1 mcg/kg IV, 120 min post dose, 10 mg/kg",175 mmHg and 165 mmHg
same,Control Before AII,"10 mg/kg i.v., before AII 0.1 mcg/kg IV, 180 min post dose, 10 mg/kg",170 mmHg and 157 mmHg
same,Control Before AII,"10 mg/kg i.v., before AII 0.1 mcg/kg IV, 240 min post dose, 10 mg/kg",170 mmHg and 157 mmHg
same,Control Before AII,"10 mg/kg i.v., before AII 0.1 mcg/kg IV, 300 min post dose, 10 mg/kg",165 mmHg and 160 mmHg
